Target: Sodium channel protein type 9 subunit alpha (Homo sapiens, UniProt Q15858)
Test: Electrophysiological Assay (In vitro Assay): Patch voltage clamp electrophysiology allows for the direct measurement and quantification of block of voltage-gated sodium channels (Nav's), and allows the determination of the time- and voltage-dependence of block which has been interpreted as differential binding to the resting, open, and inactivated states of the sodium channel (Hille, B., Journal of General Physiology (1977), 69: 497-515).The following patch voltage clamp electrophysiology studies were performed on representative compounds of the invention using human embryonic kidney cells (HEK), permanently transfected with an expression vector containing the full-length cDNA coding for the desired human sodium channel α-subunit, grown in culture media containing 10% FBS, 1% PSG, and 0.5 mg/mL G418 at 37° C. with 5% CO2. […] Nav1.7 and Nav1.5 cDNAs (NM_00297
Format: cell-based, HEK293

Sequence of Sodium channel protein type 9 subunit alpha (Q15858 whole entry): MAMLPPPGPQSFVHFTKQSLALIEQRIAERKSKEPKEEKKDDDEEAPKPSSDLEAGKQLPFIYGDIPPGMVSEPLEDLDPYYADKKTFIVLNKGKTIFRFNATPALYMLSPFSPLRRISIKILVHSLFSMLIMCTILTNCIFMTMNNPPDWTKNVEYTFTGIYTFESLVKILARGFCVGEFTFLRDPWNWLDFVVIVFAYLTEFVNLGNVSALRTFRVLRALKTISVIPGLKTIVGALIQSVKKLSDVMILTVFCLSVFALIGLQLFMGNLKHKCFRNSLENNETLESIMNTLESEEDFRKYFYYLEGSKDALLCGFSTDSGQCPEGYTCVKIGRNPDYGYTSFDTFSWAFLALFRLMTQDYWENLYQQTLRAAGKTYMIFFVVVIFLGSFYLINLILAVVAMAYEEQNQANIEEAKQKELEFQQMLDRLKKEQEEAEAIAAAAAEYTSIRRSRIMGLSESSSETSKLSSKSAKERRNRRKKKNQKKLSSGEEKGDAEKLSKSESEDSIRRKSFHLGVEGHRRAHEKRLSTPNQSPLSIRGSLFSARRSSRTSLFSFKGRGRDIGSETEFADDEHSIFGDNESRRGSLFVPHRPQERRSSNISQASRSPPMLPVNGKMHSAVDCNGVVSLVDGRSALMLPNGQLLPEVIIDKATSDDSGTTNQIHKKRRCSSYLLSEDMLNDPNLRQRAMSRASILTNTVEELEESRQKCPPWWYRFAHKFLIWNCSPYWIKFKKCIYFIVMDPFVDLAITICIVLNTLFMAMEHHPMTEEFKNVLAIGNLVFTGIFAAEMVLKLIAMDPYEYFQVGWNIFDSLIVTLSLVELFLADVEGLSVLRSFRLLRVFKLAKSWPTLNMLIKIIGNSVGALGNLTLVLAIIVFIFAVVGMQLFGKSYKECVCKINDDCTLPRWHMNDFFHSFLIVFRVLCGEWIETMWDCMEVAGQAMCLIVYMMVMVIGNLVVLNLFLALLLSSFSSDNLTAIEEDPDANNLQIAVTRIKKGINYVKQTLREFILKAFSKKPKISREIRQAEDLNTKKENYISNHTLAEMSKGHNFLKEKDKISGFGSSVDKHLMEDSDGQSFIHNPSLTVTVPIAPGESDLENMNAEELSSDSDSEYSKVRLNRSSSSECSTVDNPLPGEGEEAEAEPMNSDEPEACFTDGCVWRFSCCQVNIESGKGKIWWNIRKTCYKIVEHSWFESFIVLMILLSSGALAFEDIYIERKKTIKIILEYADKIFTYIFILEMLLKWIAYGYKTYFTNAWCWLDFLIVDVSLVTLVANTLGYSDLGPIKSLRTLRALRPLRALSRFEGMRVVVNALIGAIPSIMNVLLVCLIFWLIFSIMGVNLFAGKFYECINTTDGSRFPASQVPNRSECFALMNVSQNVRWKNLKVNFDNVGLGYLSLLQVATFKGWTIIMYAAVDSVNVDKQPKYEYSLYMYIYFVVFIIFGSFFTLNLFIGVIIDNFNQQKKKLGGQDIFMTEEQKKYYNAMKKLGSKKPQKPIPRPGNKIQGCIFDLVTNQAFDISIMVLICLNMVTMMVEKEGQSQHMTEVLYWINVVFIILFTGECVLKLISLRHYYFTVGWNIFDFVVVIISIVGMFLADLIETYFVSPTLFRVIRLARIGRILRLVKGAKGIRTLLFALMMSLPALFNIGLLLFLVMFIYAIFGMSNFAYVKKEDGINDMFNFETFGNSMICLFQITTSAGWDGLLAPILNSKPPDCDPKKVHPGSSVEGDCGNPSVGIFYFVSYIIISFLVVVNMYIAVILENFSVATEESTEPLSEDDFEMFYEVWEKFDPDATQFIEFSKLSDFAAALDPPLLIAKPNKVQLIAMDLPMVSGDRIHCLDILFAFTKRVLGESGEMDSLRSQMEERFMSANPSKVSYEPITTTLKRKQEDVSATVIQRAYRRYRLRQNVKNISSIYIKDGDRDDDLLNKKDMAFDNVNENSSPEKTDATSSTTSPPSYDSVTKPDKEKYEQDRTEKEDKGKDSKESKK

For `O=S(=O)(Nc1ncccc1F)c1cc(F)c(Oc2ccc(Cl)cc2-c2cccc3nccn23)cc1F`, which IC50 is on record?
The IC50 was 23.2 nM.

Source: ChEMBL document CHEMBL3887002, “Biaryl ether sulfonamides and their use as therapeutic agents” (2016)
